One data set deals with T1, TRAM (Homo sapiens, UniProt Q86XR7).
T1 construct: expressed in transfected cells; host or cells: HEK293_T, lysed in 1% NP-40 buffer
In words: His peptide pulldown of overexpressed Flag-TRAM from HEK293_T lysates. The class given is binding. As to conditions: 25 μM His-peptide, Ni-agarose beads, 2 hr at 4° C. Here is the method:
(§1) HEK293_T cells were seeded in 6 well plate (1.5×10^5 cells/ml) 24 hours before transfection with 1 μg/well Flag-Mal and 2 μg/well Flag-TRAM encoding plasmids. The total amount of plasmid DNA transfected into the cells was made up to […] by adding pcDNA. 24 hours post-transfection cells were lysed in 1% NP-40 lysis buffer containing 20 mM imidazole. The experimental lysates were incubated with 25 μM His-A464 peptide ((H-H-H-H-H-H-[…]) (SEQ ID NO. 66) and 40 μL of Ni-agarose beads for 2 hr at 4° C. Control samples were incubated with either beads only or beads and 25 μM His-A467 peptide (H-H-H-H-H-H-[…]) (SEQ ID NO. 67). After incubation beads were washed 5 times in lysis buffer with imidazole. Proteins were resolved by SDS-PAGE, and transferred membranes immunoblotted for Flag. Data is representative of four experiments; and
(§2) HEK293_T cells were seeded in 6 well plates (1.5×10^5 cells/ml) 24 hours before transfection. 8 μl of GeneJuice was mixed with 32 μl of serum-free DMEM (SFM) per transfection and incubated for 5 min at room temperature before adding 1 μg per transfection of Flag-Mal or 2 μg of Flag-TRAM encoding plasmid DNA. GeneJuice/SFM/DNA mixture was then incubated for 15 min at room temperature before adding to the cells. […] The signal was read using Odyssey Infrared Imaging System, LI-COR® Biosciences.

The target in another data set is T2, Mal (Homo sapiens, UniProt P58753).
T2 construct: expressed in transfected cells; host or cells: HEK293_T, lysed in 1% NP-40 buffer
T2 sequence (P58753 whole entry): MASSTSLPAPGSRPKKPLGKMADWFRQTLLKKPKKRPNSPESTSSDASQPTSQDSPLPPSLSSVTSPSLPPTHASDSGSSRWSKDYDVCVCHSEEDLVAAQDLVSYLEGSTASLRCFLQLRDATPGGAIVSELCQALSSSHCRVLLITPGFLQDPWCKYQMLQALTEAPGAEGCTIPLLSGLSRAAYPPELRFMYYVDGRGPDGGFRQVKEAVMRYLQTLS
In words: His peptide pulldown of overexpressed Flag-Mal from HEK293_T lysates. The class given is binding. As to conditions: 25 μM His-peptide, Ni-agarose beads, 2 hr at 4° C. Here is the method:
as §1, §2

The nature of data set [1]: peptide solubility (observation).
Another data set concerns TLR4. The class given is cell-based, human. As to conditions: THP-1; peptide 20 or 40 μM 1 h before 100 ng/ml LPS; 6 h.
TLR4, sequence (O00206 24-839): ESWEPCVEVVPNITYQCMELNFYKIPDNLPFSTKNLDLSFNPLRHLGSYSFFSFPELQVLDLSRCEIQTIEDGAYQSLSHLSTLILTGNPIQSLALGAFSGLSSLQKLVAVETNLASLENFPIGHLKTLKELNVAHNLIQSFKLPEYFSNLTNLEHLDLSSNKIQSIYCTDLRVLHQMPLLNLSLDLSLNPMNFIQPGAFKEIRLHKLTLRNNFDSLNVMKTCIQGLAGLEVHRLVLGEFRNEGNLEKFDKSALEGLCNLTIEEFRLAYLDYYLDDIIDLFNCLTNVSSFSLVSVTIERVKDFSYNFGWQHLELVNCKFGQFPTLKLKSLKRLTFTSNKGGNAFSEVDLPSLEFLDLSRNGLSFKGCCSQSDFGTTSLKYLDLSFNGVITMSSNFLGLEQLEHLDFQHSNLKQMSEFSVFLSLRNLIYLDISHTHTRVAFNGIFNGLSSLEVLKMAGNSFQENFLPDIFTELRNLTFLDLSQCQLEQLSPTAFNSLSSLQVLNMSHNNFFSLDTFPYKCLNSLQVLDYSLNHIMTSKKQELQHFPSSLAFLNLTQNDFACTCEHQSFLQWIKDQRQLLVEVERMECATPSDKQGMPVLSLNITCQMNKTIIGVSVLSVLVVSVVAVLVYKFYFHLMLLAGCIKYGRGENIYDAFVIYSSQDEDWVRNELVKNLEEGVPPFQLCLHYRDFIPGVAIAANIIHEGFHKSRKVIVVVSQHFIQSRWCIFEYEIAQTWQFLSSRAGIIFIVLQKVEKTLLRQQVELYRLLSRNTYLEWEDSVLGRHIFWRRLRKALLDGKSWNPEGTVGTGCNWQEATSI
TLR4, sequence (Q9Y6Y9 17-160 partner limits assumed): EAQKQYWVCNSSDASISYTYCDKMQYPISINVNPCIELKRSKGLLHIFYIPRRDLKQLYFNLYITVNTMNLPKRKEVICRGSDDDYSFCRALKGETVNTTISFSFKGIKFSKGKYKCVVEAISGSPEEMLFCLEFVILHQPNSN
The subject of data set [2] is LPS-induced inflammatory mediators. As to conditions: Tsung et al, 2007; cited from earlier work.
In data set [3] the test system is bacterial-induced inflammation. The following applies: murine model; McCoy et al, 2005; cited from earlier work.
The next data set deals with TLRs. In words: TLR responses in human cells. The class given is cell-based.

Ends that are not written are not given here.

T1 sequence (Q86XR7 whole entry): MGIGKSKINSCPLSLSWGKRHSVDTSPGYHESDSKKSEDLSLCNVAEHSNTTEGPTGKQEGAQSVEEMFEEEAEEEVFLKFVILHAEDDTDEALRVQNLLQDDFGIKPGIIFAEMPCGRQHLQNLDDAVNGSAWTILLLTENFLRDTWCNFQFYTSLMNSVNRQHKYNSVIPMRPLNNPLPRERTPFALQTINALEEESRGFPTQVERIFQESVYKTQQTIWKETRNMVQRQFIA

In the case of “H-H-H-H-H-H-KYSFKLILAEY (HHHHHHKYSFKLILAEY) [His-A464]”, the “pulldown of overexpressed TRAM” value with TRAM was “capable of pulling down overexpressed Mal or TRAM”. Further, the “pulldown of overexpressed Mal” value in the data set with Mal is on record as “capable of pulling down overexpressed Mal or TRAM”.
Take H-H-H-H-H-H-RNTISGNIYSA [His-A467]: the “pulldown of overexpressed TRAM” value in the data set with TRAM is “not”. For the same substance, in the data set with Mal, the “pulldown of overexpressed Mal” value is “not”.
Consider “KYSFKLILAAYRRRRRRRRR [Peptide E10A, KYSFKLILAAY-9R]”, for which the “solubility of the peptide” value in data set [1] is “insoluble”.
With “P13 (DIVKLTVYDCIRRRRRRRRR) [Peptide P13]”, the “inhibition of LPS-induced TNFα production” value in the data set on TLR4 was “even at a high dose of 40 μM, was ineffective at inhibiting TLR4”. Moreover, the “reduction of LPS-induced inflammatory mediators in mice” value in data set [2] is listed as “can reduce”. Also, in data set [3], the “reduction of in vivo bacterial-induced inflammation” value was “can reduce”. The “ability to block TLR responses in human cells” value in the data set on TLRs is listed as “unable to block TLR responses in human cells”.

Source of the values: US8722052B2, “Vaccinia virus protein A46 peptide and use thereof” (priority 2008, dated 2014).
